Test [1] addresses T1, HTR2C (Homo sapiens, UniProt P28335).
T1 sequence (P28335 1-458): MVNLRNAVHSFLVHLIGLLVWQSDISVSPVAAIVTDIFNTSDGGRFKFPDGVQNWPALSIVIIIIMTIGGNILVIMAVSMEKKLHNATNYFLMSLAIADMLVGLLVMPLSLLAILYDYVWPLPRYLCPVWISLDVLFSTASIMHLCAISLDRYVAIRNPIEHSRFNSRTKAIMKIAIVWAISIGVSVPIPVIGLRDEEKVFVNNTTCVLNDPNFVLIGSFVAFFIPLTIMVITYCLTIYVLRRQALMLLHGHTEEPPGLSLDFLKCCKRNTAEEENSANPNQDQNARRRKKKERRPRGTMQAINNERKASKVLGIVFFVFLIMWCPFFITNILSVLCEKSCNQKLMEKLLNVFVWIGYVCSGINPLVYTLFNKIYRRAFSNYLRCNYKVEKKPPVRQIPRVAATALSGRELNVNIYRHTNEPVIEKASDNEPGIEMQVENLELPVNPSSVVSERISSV
The test can be described thus: cell-based. On the set-up: species or system HEK293; TRUPATH BRET2 G-protein dissociation; antagonist mode against agonist EC80. As to conditions: HEK293, read-out: N-Desmethyl Xanomeline, Assay=Gq; agonist mode, % of control agonist.

Another test deals with T2, CHRM1 (Homo sapiens, UniProt P11229).
T2 sequence (P11229 1-460): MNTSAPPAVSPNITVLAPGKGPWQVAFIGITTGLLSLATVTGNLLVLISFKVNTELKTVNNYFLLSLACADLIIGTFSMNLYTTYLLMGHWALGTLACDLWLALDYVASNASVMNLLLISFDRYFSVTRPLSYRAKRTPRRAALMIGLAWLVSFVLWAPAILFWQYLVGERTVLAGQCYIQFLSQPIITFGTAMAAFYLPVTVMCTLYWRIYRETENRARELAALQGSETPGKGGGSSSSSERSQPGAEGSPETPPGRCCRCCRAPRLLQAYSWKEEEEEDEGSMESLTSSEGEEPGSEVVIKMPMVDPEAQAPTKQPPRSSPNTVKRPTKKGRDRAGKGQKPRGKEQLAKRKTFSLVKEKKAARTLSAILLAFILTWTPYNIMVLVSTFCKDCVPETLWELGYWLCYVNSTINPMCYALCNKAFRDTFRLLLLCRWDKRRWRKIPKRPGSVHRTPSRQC
Briefly: cell-based. Also noted: species or system HEK293; TRUPATH BRET2 G-protein dissociation; antagonist mode against agonist EC80. As to conditions: HEK293, read-out: N-Desmethyl Xanomeline, Assay=Gq; agonist mode, % of control agonist.

In the next test the target is HRH4 (Homo sapiens, UniProt Q9H3N8). The test can be described thus: cell-based. On the set-up: species or system HEK293; TRUPATH BRET2 G-protein dissociation; antagonist mode against agonist EC80. The settings on record: N-Desmethyl Xanomeline, agonist mode.
HRH4, sequence (Q9H3N8 whole entry): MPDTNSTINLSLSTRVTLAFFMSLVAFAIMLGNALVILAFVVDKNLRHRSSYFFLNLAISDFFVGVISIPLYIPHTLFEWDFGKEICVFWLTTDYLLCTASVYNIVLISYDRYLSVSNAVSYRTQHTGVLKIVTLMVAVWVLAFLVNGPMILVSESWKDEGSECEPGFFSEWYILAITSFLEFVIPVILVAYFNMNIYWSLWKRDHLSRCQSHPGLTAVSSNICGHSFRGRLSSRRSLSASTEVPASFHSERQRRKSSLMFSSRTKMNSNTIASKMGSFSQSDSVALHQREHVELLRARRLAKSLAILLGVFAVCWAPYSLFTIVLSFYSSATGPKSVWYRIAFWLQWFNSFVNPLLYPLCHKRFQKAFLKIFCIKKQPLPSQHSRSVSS
In the next test the target is HTR1D (Homo sapiens, UniProt P28221). The test can be described thus: cell-based. On the set-up: species or system HEK293; TRUPATH BRET2 G-protein dissociation; antagonist mode against agonist EC80. The settings on record: N-Desmethyl Xanomeline, agonist mode.
HTR1D, sequence (P28221 whole entry): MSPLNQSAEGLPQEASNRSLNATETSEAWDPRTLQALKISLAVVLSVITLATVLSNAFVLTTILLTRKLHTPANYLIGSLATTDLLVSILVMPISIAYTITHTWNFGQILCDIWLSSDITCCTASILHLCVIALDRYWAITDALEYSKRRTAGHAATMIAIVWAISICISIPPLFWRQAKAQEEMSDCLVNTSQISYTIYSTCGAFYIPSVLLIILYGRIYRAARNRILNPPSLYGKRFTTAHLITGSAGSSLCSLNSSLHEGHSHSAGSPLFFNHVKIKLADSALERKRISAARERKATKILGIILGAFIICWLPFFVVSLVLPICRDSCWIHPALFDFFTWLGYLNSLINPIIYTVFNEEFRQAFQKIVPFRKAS
Test [2] deals with T1, HTR2C. Briefly: cell-based. The settings on record: Assay=Gq; agonist mode. On the set-up: species or system HEK293; TRUPATH BRET2 G-protein dissociation; antagonist mode against agonist EC80.
In test [3] the target is T3, CHRM3 (Homo sapiens, UniProt P20309). The test can be described thus: cell-based.
T3 sequence (P20309 whole entry): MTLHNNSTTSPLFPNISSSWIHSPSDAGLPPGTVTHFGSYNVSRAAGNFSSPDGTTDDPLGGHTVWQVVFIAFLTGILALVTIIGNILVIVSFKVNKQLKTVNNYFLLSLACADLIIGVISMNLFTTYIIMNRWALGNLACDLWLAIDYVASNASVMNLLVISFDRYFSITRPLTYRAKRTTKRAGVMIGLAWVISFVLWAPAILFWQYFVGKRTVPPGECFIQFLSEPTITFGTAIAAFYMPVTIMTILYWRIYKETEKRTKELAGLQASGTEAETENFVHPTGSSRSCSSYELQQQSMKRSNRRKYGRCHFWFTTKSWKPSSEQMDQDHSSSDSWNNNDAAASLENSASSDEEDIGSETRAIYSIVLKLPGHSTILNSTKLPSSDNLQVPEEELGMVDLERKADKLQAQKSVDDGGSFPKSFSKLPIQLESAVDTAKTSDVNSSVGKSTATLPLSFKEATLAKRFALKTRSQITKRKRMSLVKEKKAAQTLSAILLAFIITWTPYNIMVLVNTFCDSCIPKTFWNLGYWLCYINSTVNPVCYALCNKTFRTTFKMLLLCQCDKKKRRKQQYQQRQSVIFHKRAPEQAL
Test [4] addresses T1, HTR2C. Briefly: cell-based. As to conditions: Assay=Calcium; agonist mode. On the set-up: species or system HEK293; Fluo-4 Direct calcium mobilization on FLIPR-Tetra.
The next test concerns the target T4, M2 (Homo sapiens, UniProt P08172).
T4 construct: gene CHRM2; full-length receptor; HEK293 with TRUPATH sensors (function)
T4 sequence (P08172 1-466): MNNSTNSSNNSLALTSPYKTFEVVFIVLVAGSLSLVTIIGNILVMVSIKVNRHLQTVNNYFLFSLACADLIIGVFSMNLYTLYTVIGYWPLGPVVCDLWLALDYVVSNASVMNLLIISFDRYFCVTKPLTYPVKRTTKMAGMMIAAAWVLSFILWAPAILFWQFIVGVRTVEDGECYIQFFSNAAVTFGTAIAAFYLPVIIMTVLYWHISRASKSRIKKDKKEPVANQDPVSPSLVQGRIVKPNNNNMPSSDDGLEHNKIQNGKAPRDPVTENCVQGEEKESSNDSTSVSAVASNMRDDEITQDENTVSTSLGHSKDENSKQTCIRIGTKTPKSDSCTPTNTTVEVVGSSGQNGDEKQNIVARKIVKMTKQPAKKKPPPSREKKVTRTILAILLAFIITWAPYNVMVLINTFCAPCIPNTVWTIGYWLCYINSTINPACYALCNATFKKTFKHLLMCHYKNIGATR
The test can be described thus: competitive radioligand binding, HEK293 membranes.

A further test concerns the target T5, H4 (Homo sapiens, UniProt Q9H3N8).
T5 construct: gene HRH4; full-length receptor; HEK293 cell membranes
Briefly: competitive radioligand binding, HEK293 membranes. An excerpt: competitive radioligand binding, HEK293 membranes on H4

The target of test [5] is T3, CHRM3. Briefly: cell-based. Also noted: species or system HEK293; TRUPATH BRET2 G-protein dissociation; antagonist mode against agonist EC80. The settings on record: Xanomeline, Assay=Gq; agonist mode.

The source of these data is article doi:10.1101/2025.11.20.689572v1 (biorxiv, 2025).

Like-named read-outs stand apart in the source and are kept apart here.

T5 sequence (Q9H3N8 whole entry): as the sequence (Q9H3N8 whole entry) above

`CCCCCCOc1nsnc1C1=CCCNC1` [N-desmethylxanomeline]: the results for the Emax on HTR2C [1] and at CHRM1 were 106% and 95.9%, respectively. The EC50 (as a rule, the concentration that produces a half-maximal response) at HRH4 (Assay=Gi1) turned out to be 4870 nM; at HRH4 (Assay=Gi2) it was 1390 nM; at HRH4 (Assay=Gi3), 6360 nM; at HRH4 (Assay=GoA), 6250 nM; on HTR1D (Assay=Gi2), 36.2 nM; on HTR1D (Assay=GoA), 63.1 nM. The EC50 turned out to be 25.8 nM on HTR1D (Assay=GoB); 146 nM at HTR1D (Assay=Gz); 1940 nM at HTR2C [2]; 380 nM on CHRM3 [3]; 1090 nM at HTR2C [4]. The Ki (in general, the equilibrium dissociation constant of an inhibitor or competing ligand from its target) on M2 was 1450 nM; on H4 it was 363 nM.

`CCCCCCOc1nsnc1C1=CCCN(C)C1` [Xanomeline] displayed an EC50 at CHRM3 [5] of 53.4 nM.
